Here are results for twelve compounds from PubChem BioAssay (NCI).

The structures appear in SMILES notation. Values joined by “and” are separate entries in the source; they are usually repeats but may differ in a detail not shown here. Equal entries are not always repeated.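 Each compound was tested at five concentrations against cells in 96-well plates for 48 hours. GI50 = concentration required for 50% inhibition of growth. The concentration for full growth arrest is given as TGI.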

Test systems include SK-MEL-5 melanoma; SN12C renal; HCT-116 colon; HL-60(TB) leukemia; NCI-H460 lung; HOP-92 NSCLC; UACC-257 melanoma; ACHN renal; CCRF-CEM leukemia; MCF7 breast.
Holding throughout (assay): NCI tumour cell line growth inhibition, 48 h

On to `COC(=O)C12OCC34C(CC5C(C)C6=CC(=O)OC6=CC5(C)C3C(O)C1O)OC(=O)C(O)C24` (configuration not stated), for which the GI50 was 0.373 µM in the test on SK-MEL-5 melanoma; 0.416 µM in the test on SN12C renal; 0.224 µM in the test with HCT-116 colon; 0.0616 µM in the test with NCI-H460 lung; 0.146 µM in the test on HOP-92 NSCLC; 0.339 µM in the test on UACC-257 melanoma. Also, the GI50 in the test on ACHN renal is 0.486 µM. Besides, the TGI is 0.255 µM and 2.31 µM in the test on SK-MEL-5 melanoma; 34.1 µM in the test with SN12C renal; 6.31 µM in the test on HCT-116 colon; 4.27 µM in the test with HL-60(TB) leukemia; 0.716 µM and 1.18 µM in the test on NCI-H460 lung; 0.525 µM and 2.33 µM in the test on HOP-92 NSCLC. Further, the TGI in the test on UACC-257 melanoma is 8.5 µM; in the test on ACHN renal it was 17.1 µM.
As to `Cn1c(N)nc(=O)c2c1N(C1OC(CO)C(O)C1O)CN2Cc1ccccc1` (configuration not stated), the TGI with SK-MEL-5 melanoma, in the test with SN12C renal, in the test on HCT-116 colon, in the test on HL-60(TB) leukemia, with NCI-H460 lung and in the test on HOP-92 NSCLC was over 100 µM in each case. The TGI with UACC-257 melanoma and with ACHN renal was over 100 µM throughout.
For `COc1ccc2c3c(c(C(=O)c4ccccc4)oc13)CCC2`, the TGI with SK-MEL-5 melanoma, in the test with SN12C renal, with HCT-116 colon, in the test on HL-60(TB) leukemia, with NCI-H460 lung and with UACC-257 melanoma was over 100 µM each time. Moreover, the TGI in the test on CCRF-CEM leukemia and with ACHN renal was over 100 µM each time.
Regarding `CC(=O)c1c(CO[N+](=O)[O-])n([O-])c2ccccc2[n+]1=O`, the TGI in the test on SK-MEL-5 melanoma, in the test on SN12C renal, in the test with HCT-116 colon, in the test with NCI-H460 lung, in the test with HOP-92 NSCLC and in the test on UACC-257 melanoma was over 100 µM each time. In addition, the TGI in the test with MCF7 breast, in the test on CCRF-CEM leukemia and with ACHN renal was over 100 µM each time.
Regarding `O=C1c2ccccc2-c2c1c1c(O)cccc1n2Cc1ccccn1`, the GI50 with SK-MEL-5 melanoma is 8.77 µM; with SN12C renal it was 63.3 µM; in the test on HCT-116 colon, 63.5 µM; in the test on NCI-H460 lung it was 52.1 µM; in the test on HOP-92 NSCLC, 17.7 µM; in the test on UACC-257 melanoma it was 23.1 µM. Moreover, the GI50 is 62.4 µM in the test with MCF7 breast, 29.5 µM with CCRF-CEM leukemia and 25.8 µM in the test with ACHN renal. Moreover, the TGI is over 100 µM in the test with SK-MEL-5 melanoma; over 100 µM in the test on SN12C renal; over 100 µM in the test with HCT-116 colon; over 100 µM with NCI-H460 lung; over 100 µM in the test on HOP-92 NSCLC; 60.4 µM in the test on UACC-257 melanoma. The TGI with MCF7 breast, with CCRF-CEM leukemia and with ACHN renal was over 100 µM throughout.
For the compound `CCCCCCCCCNC(=O)/C=C/c1ccc(O)c(O)c1`, the GI50 is 1.34 µM in the test with SK-MEL-5 melanoma; 10.8 µM with SN12C renal; 4.94 µM in the test on HCT-116 colon; 14.1 µM with NCI-H460 lung; 2.52 µM with HOP-92 NSCLC; 29.5 µM in the test on UACC-257 melanoma. Moreover, the GI50 with MCF7 breast is 28.3 µM; in the test on CCRF-CEM leukemia it was 0.0426 µM; in the test on ACHN renal, 6.96 µM. In addition, the TGI was determined as 10.8 µM in the test on SK-MEL-5 melanoma; 23.1 µM with SN12C renal; 18.4 µM in the test with HCT-116 colon; 57.1 µM with NCI-H460 lung; 17.3 µM with HOP-92 NSCLC; 69.6 µM in the test on UACC-257 melanoma. In addition, the TGI in the test with MCF7 breast is over 100 µM; in the test on CCRF-CEM leukemia, 1.75 µM; in the test with ACHN renal, 21.6 µM.
Take `O=C(Nc1cccc(-c2ccc(Cl)c(C(F)(F)F)c2)c1)C1CCN(Cc2cccc3cccnc23)CC1`: the GI50 in the test on SK-MEL-5 melanoma was 1.53 µM; in the test on SN12C renal, 1.6 µM; in the test with HCT-116 colon, 1.26 µM; in the test on NCI-H460 lung it was 1.87 µM; in the test on HOP-92 NSCLC, 1.36 µM; in the test on UACC-257 melanoma, 1.83 µM. Also, the GI50 with MCF7 breast was 1.44 µM; in the test on CCRF-CEM leukemia it was 2.19 µM; in the test on ACHN renal, 1.76 µM. The TGI with SK-MEL-5 melanoma was determined as 2.89 µM; in the test on SN12C renal it was 3.03 µM; in the test with HCT-116 colon it was 2.76 µM; with NCI-H460 lung, 3.55 µM; in the test with HOP-92 NSCLC, 2.83 µM; with UACC-257 melanoma, 3.62 µM. In addition, the TGI is 2.95 µM in the test on MCF7 breast, 5.85 µM in the test with CCRF-CEM leukemia and 3.14 µM in the test with ACHN renal.
For the compound `COc1ccc2oc(C(=O)O)c3c2c1CCC3CCC(=O)O` (configuration not stated), the TGI in the test with SK-MEL-5 melanoma, with SN12C renal, in the test on HCT-116 colon, in the test on HL-60(TB) leukemia, in the test on NCI-H460 lung and in the test with HOP-92 NSCLC was over 100 µM each time. Also, the TGI in the test on UACC-257 melanoma, with CCRF-CEM leukemia and in the test on ACHN renal was over 100 µM throughout.
Regarding `O=C(O/N=C1/CCC/C1=C\c1ccccc1)c1ccc(Cl)c(Cl)c1`, the TGI in the test with SK-MEL-5 melanoma, with SN12C renal, with HCT-116 colon, in the test on HL-60(TB) leukemia, in the test with NCI-H460 lung and in the test on HOP-92 NSCLC was over 100 µM each time. Also, the TGI in the test on UACC-257 melanoma, with CCRF-CEM leukemia and in the test with ACHN renal was over 100 µM in each case.
Turning to `CSc1snc2sc3c(Cl)nnnc3c12`, the TGI in the test on SK-MEL-5 melanoma was determined as 30.7 µM; in the test with SN12C renal, 28.7 µM; in the test with HCT-116 colon it was 30.9 µM; in the test with NCI-H460 lung, 32.8 µM; with UACC-257 melanoma, 26.8 µM; with CCRF-CEM leukemia, 11 µM. For the same compound, the TGI with ACHN renal was determined as 23.3 µM.
For `O=C(N/N=C1\C(=O)N(c2nccs2)C(=O)C(=O)C1c1nc2ccccc2s1)c1ccccc1O` (configuration not stated), the TGI in the test on SK-MEL-5 melanoma, in the test with SN12C renal, with HCT-116 colon, in the test on HL-60(TB) leukemia, in the test with NCI-H460 lung and in the test with HOP-92 NSCLC was over 100 µM each time. Moreover, the TGI with UACC-257 melanoma, in the test on CCRF-CEM leukemia and in the test on ACHN renal was over 100 µM throughout.
Consider `O=C(CC(=O)c1cccc2ccccc12)C(=O)NC1C2CC3CC(C2)CC1C3` (configuration not stated), for which the TGI in the test on SK-MEL-5 melanoma, in the test with SN12C renal, in the test on HCT-116 colon, with HL-60(TB) leukemia, in the test with NCI-H460 lung and in the test with HOP-92 NSCLC was over 100 µM each time. Besides, the TGI in the test on UACC-257 melanoma, in the test on CCRF-CEM leukemia and in the test on ACHN renal was over 100 µM in each case.
